Experimental data reported in US8680111B2 (Pfizer Inc., priority 2012, dated 2014).
Where two headings read alike, the source gives them in different places.

What was measured:
[1] = biological target: T1, human recombinant wild-type ALK kinase domain (amino acids 1093-1411) (Homo sapiens, UniProt Q9UM73); experiment: Wild-type ALK enzyme assay (microfluidic mobility shift); type: biochemical; details: ATP 60 μM, competitive inhibition fit, read-out: WT ALK enzyme assay (Ki)
T1 construct: ALK kinase domain (amino acids 1093-1411); made in house
Experimental: The reactions were incubated for 1 h at room temperature, stopped by the addition of 0.1 M EDTA, pH 8, and the extent of reactions (˜15-20% conversion with no inhibitor) was determined after electrophoretic separation of the fluorescently labeled peptide substrate and phosphorylated product on an LabChip EZ Reader II (Caliper Life Sciences, Hopkinton, Mass.).

[2] = biological target: T2, human recombinant L1196M ALK kinase domain (amino acids 1093-1411) (Homo sapiens, UniProt Q9UM73, L1196M); experiment: L1196M mutant ALK enzyme assay (microfluidic mobility shift); type: biochemical; details: ATP 60 μM, 0.5 nM enzyme, competitive inhibition fit; read-out: L1196M ALK enzyme assay (Ki)
T2 construct: ALK kinase domain (amino acids 1093-1411); made in house

[3] = biological target: T3, WT EML4-ALK (NIH-3T3 EML4-ALK wt v1 cells) (Homo sapiens, UniProt Q9UM73); experiment: Cellular phospho-ALK (Tyr1604) ELISA assay for WT EML4-ALK; type: cell-based; details: 1 hour, read-out: ELISA assay for WT EML4-ALK (IC50)
T3 construct: expressed in transfected cells; the other entry of the earlier key: EML4 (Q9HC35, Echinoderm microtubule-associated protein-like 4)
Experimental: (§1) Cellular Phospho-ALK (Tyr1604) ELISA Assay for EML4-ALK:
(§2) The cells were maintained at 37° C. in a 5% CO2 incubator in DMEM (Invitrogen, Carlsbad, Calif.) medium supplemented with 1% L-glutamine, 1% penicillin and streptomycin, 1 ug/ml puromycin and 10% new born calf serum (NCS) in T-75 flasks.
(§3) Cells were washed with PBS and re-suspended in DMEM medium supplemented with 0.5% NCS and 1% pen/strep and seeded into 96-well plates at density of 20,000 cells/well/100 μl and incubated in the incubator at 37° C. and 5% CO2. After 20 hours of incubation, 100 μl of assay media (DMEM) in presence of designated PF-compounds concentrations or controls (DMSO) were added into plates and incubated for 1 hour in the incubator. Media was then removed and lysis buffer, containing phosphatase inhibitors and phenylmethanesulfonyl fluoride (PMSF), was added to wells and shaken at 4° C. for 30 minutes to generate protein lysates.
(§4) A phospho-ALK (Tyr1604) rabbit antibody was coated onto the 96-well microplates. 50 μl of cell lysates were added to the antibody coated plate and incubated at room temperature for 2 hours. Following extensive washing with 0.1% Tween 20 in PBS to remove unbound materials, ALK mouse mAb was added to detect captured phospho-ALK (Tyr1604) and phospho-ALK fusion proteins. Anti-mouse IgG, HRP-linked antibody was then used to recognize the bound detection antibody. Finally, the chemiluminescent reagent was added and incubated for 10 minutes for signal development. The assay plates were read in the Envision plate reader in the luminescent mode. IC50 values were calculated by a concentration-response curve fitting using a four-parameter analytic method.

[4] = biological target: T4, L1196M EML4-ALK (NIH-3T3 EML4-ALK v1 L1196M cells) (Homo sapiens, UniProt Q9UM73, L1196M); experiment: Cellular phospho-ALK (Tyr1604) ELISA assay for L1196M EML4-ALK; type: cell-based; details: NIH-3T3 EML4-ALK v1 L1196M cells, 1 hour, phospho-ALK (Tyr1604); read-out: ELISA assay for L1196M EML4-ALK (IC50)
T4 construct: expressed in transfected cells; the other entry of the earlier key: EML4 (Q9HC35, Echinoderm microtubule-associated protein-like 4)
Experimental: as §1, §2, §3, §4

Compound	Ki [1]	Ki [2]	IC50 [3]	IC50 [4]	also measured
CC1Oc2cc(cnc2N)-c2c(cnn2C)CCCCCOc2ccc(F)cc21 (stereo not drawn)	–	–	–	–	ring closure, isolated yield (cc_pd bond, Pd(OAc)2/cataCXium A/KOAc, t-amyl alcohol, 30.0 mM, 120.0 °C): 43%
C[C@H]1Oc2nc(cnc2N)-c2c(nn(C)c2C#N)CNC(=O)c2ccc(F)cc21 [Example 102, (10R)-7-amino-12-fluoro-2,10-dimethyl-15-oxo-10,15,16,17-tetrahydro-2H-8,4-(azeno)pyrazolo[4,3-h][2,5,11]benzoxadiazacyclotetradecine-3-carbonitrile]	0.33 nM	1.41 nM	11.6 nM	83.8 nM	ring closure, isolated yield (amide bond, 12-membered ring, KOH, MeOH, […], 2 steps): 28%
Cn1ncc2c1-c1cnc(N)c(c1)OCc1cc(F)ccc1OCCC2	–	–	–	–	ring closure, isolated yield (ether bond, 13-membered ring, NaH, DMF, 51.0 mM, 50.0 °C, 2 steps): 37%
CCc1onc2c1-c1cnc(N)c(c1)O[C@H](C)c1cc(F)ccc1C(=O)N(C)C2 [Example 82, (10R)-7-amino-3-ethyl-12-fluoro-10,16-dimethyl-16,17-dihydro-8,4-(metheno)[1,2]oxazolo[4,3-h][2,5,11]benzoxadiazacyclotetradecin-15(10H)-one]	< 0.2 nM	2.39 nM	11.1 nM	183 nM	ring closure, isolated yield (amide bond, 12-membered ring, 3 steps): 66%
C[C@H]1Oc2nc(cnc2N)-c2c(C#N)n[nH]c2CN(C)C(=O)c2ccc(F)cc21 [Example 89, (10R)-7-amino-12-fluoro-10,16-di methyl-15-oxo-10,15,16,17-tetrahydro-1H-8,4-(azeno)pyrazolo[4,3-h][2,5,11]benzoxadiazacyclotetradecine-3-carbonitrile]	0.339 nM	0.275 nM	6.43 nM	56 nM	ring closure, isolated yield (amide bond, 12-membered ring, HATU/DIEA, DMF, 12.6 mM): 15.8%
C[C@H]1Oc2cc(cnc2N)-c2c(C#N)nn(C)c2CN(C)C(=O)c2ccc(F)cc21 [Example 114, (10R)-7-amino-12-fluoro-1,10,16-trimethyl-15-oxo-10,15,16,17-tetrahydro-1H-8,4-(metheno)pyrazolo[4,3-h][2,5,11]benzoxadiazacyclotetradecine-3-carbonitrile]	0.271 nM	1.36 nM	3.29 nM	78.2 nM	–
C[C@H]1Oc2nc(cnc2N)-c2c(nn(C3COC3)c2C#N)CN(C)C(=O)c2ccc(F)cc21 [Example 93, (10R)-7-amino-12-fluoro-10,16-di methyl-2-(oxetan-3-yl)-15-oxo-10,15,16,17-tetrahydro-2H-8,4-(azeno) pyrazolo[4,3-h][2,5,11]benzoxadiazacyclotetradecine-3-carbonitrile]	0.048 nM	0.3 nM	3.23 nM	31.7 nM	–
C[C@H]1Oc2nc(cnc2N)-c2c(nn(CC(F)F)c2C#N)CN(C)C(=O)c2ccc(F)cc21 [Example 91, (10R)-7-amino-2-(2,2-difluoroethyl)-12-fluoro-10,16-dimethyl-15-oxo-10,15,16,17-tetrahydro-2H-8,4-(azeno)pyrazolo[4,3-h][2,5,11]benzoxadiazacyclotetradecine-3-carbonitrile]	0.177 nM	0.315 nM	0.68 nM	5.88 nM	–
C[C@H]1Oc2cc(cnc2N)-c2c(nn(C)c2C#N)CN(C)Cc2ccc(F)cc21 [Example 36, (10R)-7-amino-12-fluoro-2,10,16-trimethyl-10,15,16,17-tetrahydro-2H-4,8-(metheno)pyrazolo[4,3-h][2,5,11]benzoxadiazacyclotetradecine-3-carbonitrile]	< 0.2 nM	0.56 nM	0.18 nM	2.64 nM	–

The next lines start with results.

Ki [1]	Ki [2]	IC50 [3]	IC50 [4]	Compound	also measured
< 0.07 nM	0.06 nM	0.332 nM	3.03 nM	C[C@H]1Oc2nc(cnc2N)-c2c(nn(C)c2C#N)CN(C2CC2)C(=O)c2ccc(F)cc21 [Example 54, (10R)-7-amino-16-cyclopropyl-12-fluoro-2,10-dimethyl-15-oxo-10,15,16,17-tetrahydro-2H-8,4-(azeno)pyrazolo[4,3-h][2,5,11]benzoxadiazacyclotetradecine-3-carbonitrile]	ring closure, isolated yield (cc_pd bond, 12-membered ring, Pd(OAc)2/cataCXium A/PivOH/KOAc, t-AmOH/water (1 drop), 37.0 mM, […]): 54%
4.6 nM	21.5 nM	–	–	C[C@H]1Oc2cc(nnc2N)-c2c(nn(C)c2C#N)CN(C)C(=O)c2ccc(F)cc21 [Example 60, (10R)-7-amino-12-fluoro-2,10,16-trimethyl-15-oxo-10,15,16,17-tetrahydro-2H-8,4-(metheno)pyrazolo[4,3-h][2,5,6,11]benzoxatriazacyclotetradecine-3-carbonitrile]	ring closure, isolated yield (amide bond, 12-membered ring, HATU/DIEA, DMF/THF, 18.6 mM, 0.0 °C): 9%
3.5 nM	24.7 nM	–	–	C[C@H]1Oc2nc(cnc2N)-c2c(C#N)cccc2CN(C)C(=O)c2ccc(F)cc21 [Example 97, (5R)-8-amino-3-fluoro-5,17-dimethyl-18-oxo-5,16,17,18-tetrahydro-7,11-(azeno)dibenzo[g,l][1,4,10]oxadiazacyclotetradecine-12-carbonitrile]	ring closure, isolated yield (amide bond, 12-membered ring, HATU/DIEA, DMF, 6.7 mM): 42%
0.2 nM	0.88 nM	1.83 nM	35 nM	C[C@H]1Oc2nc(cnc2N)-c2cn(C)nc2CN(C)C(=O)c2ccc(F)cc21 [Example 56, (10R)-7-amino-12-fluoro-2,10,16-trimethyl-16,17-dihydro-2H-8,4-(azeno)pyrazolo[4,3-h][2,5,11]benzoxadiazacyclotetradecin-15(10H)-one]	ring closure, isolated yield (cc_pd bond, 12-membered ring, Pd(OAc)2/cataCXium A/KOAc, t-amyl alcohol, 69.8 mM, 120.0 °C): 6%
0.079 nM	0.249 nM	1.32 nM	13 nM	C[C@H]1Oc2nc(cnc2N)-c2c(C#N)nn(CC(F)F)c2CN(C)C(=O)c2ccc(F)cc21 [Example 90, (10R)-7-amino-1-(2,2-difluoroethyl)-12-fluoro-10,16-dimethyl-15-oxo-10,15,16,17-tetrahydro-1H-8,4-(azeno)pyrazolo[4,3-h][2,5,11]benzoxadiazacyclotetradecine-3-carbonitrile]	ring closure, isolated yield (cc_pd bond, 12-membered ring, Pd(OAc)2/cataCXium A/KOAc, t-amyl alcohol, 46.7 mM): 11%
47.6 nM	74 nM	–	–	C[C@@H]1Oc2nc(cnc2N)-c2cn(C)nc2CN(C)C(=O)c2ccc(F)cc21 [Example 83, (10S)-7-amino-12-fluoro-2,10,16-trimethyl-16,17-dihydro-2H-8,4-(azeno)pyrazolo[4,3-h][2,5,11]benzoxadiazacyclotetradecin-15(10H)-one]	ring closure, isolated yield (cc_pd bond, 12-membered ring, Pd(OAc)2/cataCXium A/KOAc, t-amyl alcohol, 120.0 °C, 2 steps): 11%
0.3 nM	0.86 nM	11.4 nM	51.9 nM	CC1Oc2nc(cnc2N)-c2c(C#N)nn3c2C(CC3)N(C)C(=O)c2ccc(F)cc21 [Example 74, (9R)-6-amino-11-fluoro-9,15-dimethyl-14-oxo-9,14,15,15a,16,17-hexahydro-7,3-(azeno)-8-oxa-1,5,15,17a-tetraazabenzo[11,12]cyclotetradeca[1,2,3-cd]pentalene-2-carbonitrile]	–
0.11 nM	0.49 nM	2.3 nM	49.1 nM	7-amino-12-fluoro-3-methoxy-1,16,17-trimethyl-16,17-dihydro-1H-8,4-(azeno)pyrazolo[4,3-h][2,5,11]benzoxadiazacyclotetradecin-15(10H)-one [Example 125]	–
0.27 nM	0.7 nM	9.27 nM	52.3 nM	COc1nn(C)c2c1-c1cnc(N)c(n1)OCc1cc(F)ccc1C(=O)N(C)C2C (single isomer, unassigned) [Example 122, 7-amino-12-fluoro-3-methoxy-1,16,17-trimethyl-16,17-dihydro-1H-8,4-(azeno)pyrazolo[4,3-h][2,5,11]benzoxadiazacyclotetradecin-15(10H)-one]	–
0.13 nM	0.28 nM	0.95 nM	6.25 nM	COc1snc2c1-c1cnc(N)c(n1)O[C@H](C)c1cc(F)ccc1C(=O)N(C)C2 [Example 51, (10R)-7-amino-12-fluoro-3-methoxy-10,16-dimethyl-16,17-dihydro-8,4-(azeno)[1,2]thiazolo[4,3-h][2,5,11]benzoxadiazacyclotetradecin-15(10H)-one]	–
< 0.2 nM	< 0.1 nM	0.841 nM	5.36 nM	CC1Oc2nc(cnc2N)-c2c(nn(C)c2C#N)CN(C)C(=O)c2ccc(F)cc21 (single isomer, unassigned) [Example 32, 7-amino-12-fluoro-2,10,16-trimethyl-15-oxo-10,15,16,17-tetrahydro-2H-8,4-(azeno)pyrazolo[4,3-h][2,5,11]benzoxadiazacyclotetradecine-3-carbonitrile]	–
5.96 nM	15.8 nM	53.2 nM	660 nM	COc1nccc2c1-c1cnc(N)c(n1)OC(C)c1cc(F)ccc1C(=O)N(C)C2 (single isomer, unassigned) [Example 31, 8-amino-13-fluoro-4-methoxy-11,17-dimethyl-17,18-dihydro-9,5-(azeno)pyrido[3,4-h][2,5,11]benzoxadiazacyclotetradecin-16(11H)-one]	–
